Results taken from patent US12091409B2, “Ether linked triazoles as NRF2 activators” (ASTEX THERAPEUTICS LIMITED, priority 2016, dated 2024).
Where a name gives a salt, the structure may show the parent alone.

test system: NQO1 specific enzyme activity in BEAS-2B cells (marker for NRF2 activation); test: BEAS-2B NQO1 MTT Assay; type: cell-based; conditions: Homo sapiens, BEAS-2B, 48 h, NQO1 specific activity induction, 48 hours with compound
Excerpt: NAD(P)H:quinone oxidoreductase 1 (NQO1), also called DT diaphorase, is a homodimeric FAD-containing enzyme that catalyzes obligatory NAD(P)H-dependent two-electron reductions of quinones and protects cells against the toxic and neoplastic effects of free radicals and reactive oxygen species arising from one-electron reductions. The transcription of NQO1 is finely regulated by NRF2, and thus NQO1 activity is a good marker for NRF2 activation. On day one, frozen BEAS-2B cells (ATCC) were thawed in a water bath, counted, and re-suspended at a concentration of 250,000 cells/mL. Fifty microliters of cells were plated in 384 well black clear-bottomed plates. Plates were incubated at 37° C., 5% CO2 overnight. On day two, plates were centrifuged and 50 nL of compound or controls were added to the cells. Plates were then incubated at 37° C., 5% CO2 for 48 hours. On day four, medium was aspirated from the plate and crude cell lysates were made by adding 13 uL of 1× Cell Signaling Technologies lysis buffer with 1 Complete, Mini, EDTA-free Protease Inhibitor Tablet (Roche) for each 10 mL of lysis buffer. After lysis plates were incubated for 20 minutes at room temperature. Two microliters of lysate were removed for use in Cell Titer Glo assay (Promega) and MTT cocktail was prepared (Prochaska et. al. 1998) for measurement of NQO1 activity. Fifty microliters of MTT cocktail was added to each well, plate was centrifuged, and analyzed on an Envision plate reader (Perkin Elmer) using Absorbance 570 nm label for 30 minutes. Product formation was measured kinetically and the pEC50 of NQO1 specific activity induction was calculated by plotting the change in absorbance (Delta OD/min) versus the log of compound concentration followed by 3-parameter fitting.
pEC50 is the negative log of the EC50.
EC50s<1 nM (+++++), EC50s 1 nM-10 nM (++++), EC50s 10 nM-100 nM (+++), EC50s 100 nM-1 uM (++), EC50s 1 uM-10 uM (+); EC50s>10 uM (−), or were not determined (ND).

| Compound | EC50 |
| --- | --- |
| CC[C@@H]1CN(Cc2cc(C(OCc3cn(Cc4cccc(-c5ccc(C(=O)O)cc5)c4)nn3)C(C)(C)C(=O)O)ccc2C)S(=O)(=O)c2ccccc2O1 (stereo partly drawn) [Example 22, 3′-((4-((2-Carboxy-1-(3-(((R)-4-ethyl-1,1-dioxido-3,4-dihydro-2H-benzo[b][1,4,5]oxathiazepin-2-yl)methyl)-4-methylphenyl)-2-methylpropoxy)methyl)-1H-1,2,3-triazol-1-yl)methyl)-[1,1′-biphenyl]-4-carboxylic acid] | 1 to 10 nM |
| CCn1cc(CO[C@@H](c2ccc(C)c(CN3CC(C)Cc4ccncc4S3(=O)=O)c2)C(C)(C)C(=O)O)nn1 (stereo in doubt) [Example 73, (3S)-((1-ethyl-1H-1,2,3-triazol-4-yl)methoxy)-2,2-dimethyl-3-(4-methyl-3-(((R)-4-methyl-1,1-dioxido-4,5-dihydropyrido[4,3-f][1,2]thiazepin-2(3H)-yl)methyl)phenyl)propanoic acid] | 10 to 100 nM |
| CC[C@@H]1CN(Cc2cc([C@H](OCc3cn(CCOCCOC)nn3)C(C)(C)C(=O)O)ccc2C)S(=O)(=O)c2ccccc2O1 [Example 107, 3-(3-(((R)-4-ethyl-1,1-dioxido-3,4-dihydro-2H-benzo[b][1,4,5]oxathiazepin-2-yl)methyl)-4-methylphenyl)-3-((1-(2-(2-methoxyethoxy)ethyl)-1H-1,2,3-triazol-4-yl)methoxy)-2,2-dimethylpropanoic acid] | < 1 nM |
| Cc1ccc(C(OCc2cn(Cc3cccc(Cn4cc(C(=O)O)nn4)c3)nn2)C(C)(C)C(=O)O)cc1CN1C[C@@H](C)Oc2ccccc2S1(=O)=O (stereo partly drawn) [Example 43, 1-(3-((4-((2-Carboxy-2-methyl-1-(4-methyl-3-(((R)-4-methyl-1,1-dioxido-3,4-dihydro-2H-[b][1,4,5]oxathiazepin-2-yl)methyl)phenyl)propoxy)methyl)-1H-1,2,3-triazol-1-yl)methyl)benzyl)-1H-1,2,3-triazole-4-carboxylic acid] | 100 to 1000 nM |
| CCCn1cc(CO[C@H](c2ccc(C)c(CN3C[C@H](C)Cc4ccncc4S3(=O)=O)c2)C(C)(C)C(=O)O)nn1 [Example 67, (R)-2,2-dimethyl-3-(4-methyl-3-(((R)-4-methyl-1,1-dioxido-4,5-dihydropyrido[4,3-f][1,2]thiazepin-2(3H)-yl)methyl)phenyl)-3-((1-propyl-1H-1,2,3-triazol-4-yl)methoxy)propanoic acid] | 100 to 1000 nM |
| CC(=O)N1CCC(Cn2cc(COC(c3ccc(C)c(CN4C[C@@H](C)Oc5ccccc5S4(=O)=O)c3)C(C)(C)C(=O)O)nn2)CC1 (stereo partly drawn) [Example 32, 3-((1-((1-Acetylpiperidin-4-yl)methyl)-1H-1,2,3-triazol-4-yl)methoxy)-2,2-dimethyl-3-(4-methyl-3-(((R)-4-methyl-1,1-dioxido-3,4-dihydro-2H-benzo[b][1,4,5]oxathiazepin-2-yl)methyl)phenyl)propanoic acid] | 10 to 100 nM |
| CCCn1cc(CO[C@H](c2ccc(C)c(CN3C[C@@H](C)Cc4ccc(C(F)(F)F)cc4S3(=O)=O)c2)C(C)(C)C(=O)O)nn1 [Example 86, (R)-2,2-dimethyl-3-(4-methyl-3-(((S)-4-methyl-1,1-dioxido-8-(trifluoromethyl)-4,5-dihydrobenzo[f][1,2]thiazepin-2(3H)-yl)methyl)phenyl)-3-((1-propyl-1H-1,2,3-triazol-4-yl)methoxy)propanoic acid] | < 1 nM |
| CC[C@@H]1CN(Cc2cc([C@H](OCc3cn(CC)nn3)C(C)(C)C(=O)O)ccc2C)Cc2ccccc2O1 [Example 118] | 1000 to 10000 nM |
| CC[C@H]1Cc2cccnc2CN(Cc2cc([C@H](OCc3cn(CC)nn3)C(C)(C)C(=O)O)ccc2C)C1 [Example 116, (S)-methyl 3-((1-ethyl-1H-1,2,3-triazol-4-yl)-methoxy)-3-(3-(((S)-6-ethyl-6,7-dihydro-5H-pyrido[2,3-c]azepin-8(9H)-yl)methyl)-4-methylphenyl)-2,2-dimethyl-propanoic acid, trifluoroacetate] | 10 to 100 nM |
| Cc1ccc(C(OCc2cn(Cc3cccc(Cn4cc(CO)nn4)c3)nn2)C(C)(C)C(=O)O)cc1CN1C[C@@H](C)Oc2ccccc2S1(=O)=O (stereo partly drawn) [Example 39, 3-((1-(3-((4-(Hydroxymethyl)-1H-1,2,3-triazol-1-yl)methyl)benzyl)-1H-1,2,3-triazol-4-yl)methoxy)-2,2-dimethyl-3-(4-methyl-3-(((R)-4-methyl-1,1-dioxido-3,4-dihydro-2H-benzo[b][1,4,5]oxathiazepin-2-yl)methyl)phenyl)propanoic acid] | 10 to 100 nM |
| CC[C@@H]1CN(Cc2cc([C@@H](OCc3cn(C)nn3)C(C)(C)C(=O)O)ccc2C)Cc2nc(C)ccc2O1 [Example 110, (R)-3-(3-(((R)-2-Ethyl-7-methyl-2,3-dihydropyrido[2,3-f][1,4]oxazepin-4(5H)-yl)methyl)-4-methylphenyl)-2,2-dimethyl-3-((1-methyl-1H-1,2,3-triazol-4-yl)methoxy)propanoic acid trifluoroacetate] | 1 to 10 nM |
| CCCn1cc(CO[C@H](c2ccc(C)c(CN3C[C@@H](C)Cc4ccc(F)cc4S3(=O)=O)c2)C(C)(C)C(=O)O)nn1 [Example 87, (R)-3-(3-(((S)-8-fluoro-4-methyl-1,1-dioxido-4,5-dihydrobenzo[f][1,2]thiazepin-2(3H)-yl)methyl)-4-methylphenyl)-2,2-dimethyl-3-((1-propyl-1H-1,2,3-triazol-4-yl)methoxy)propanoic acid] | < 1 nM |
| CC[C@@H]1CN(Cc2cc([C@@H](OCc3cn(C)nn3)C(C)(C)C(=O)O)ccc2C)S(=O)(=O)c2ncccc2O1 [Example 121, (R)-3-(3-(((R)-4-Ethyl-1,1-dioxido-3,4-dihydro-2H-pyrido[3,2-b][1,4,5]oxathiazepin-2-yl)methyl)-4-methylphenyl)-2,2-dimethyl-3-((1-methyl-1H-1,2,3-triazol-4-yl)methoxy)propanoic acid] | 1 to 10 nM |
| Cc1ccc(C(OCc2cn(C3COC3)nn2)C(C)(C)C(=O)O)cc1CN1C[C@@H](C)Oc2ccccc2S1(=O)=O (stereo partly drawn) [Example 104, 2,2-Dimethyl-3-(4-methyl-3-(((R)-4-methyl-1,1-dioxido-3,4-dihydro-2H-benzo[b][1,4,5]oxathiazepin-2-yl)methyl)phenyl)-3-((1-(oxetan-3-yl)-1H-1,2,3-triazol-4-yl)methoxy)propanoic acid] | 10 to 100 nM |
| CC[C@@H]1CN(Cc2cc([C@@H](OCc3cn(CC)nn3)C(C)(C)C(=O)O)ccc2C)Cc2ncccc2O1 [Example 113, (R)-3-((1-Ethyl-1H-1,2,3-triazol-4-yl)methoxy)-3-(3-(((R)-2-ethyl-2,3-dihydropyrido[2,3-f][1,4]oxazepin-4(5H)-yl)methyl)-4-methylphenyl)-2,2-dimethylpropanoic Acid, Trifluoroacetate] | 10 to 100 nM |
| Cc1ccc(C(OCc2cn(CC3CCNCC3)nn2)C(C)(C)C(=O)O)cc1CN1C[C@@H](C)Oc2ccccc2S1(=O)=O (stereo partly drawn) [Example 53, 2,2-Dimethyl-3-(4-methyl-3-(((R)-4-methyl-1,1-dioxido-3,4-dihydro-2H-benzo[b][1,4,5]oxathiazepin-2-yl)methyl)phenyl)-3-((1-(piperidin-4-ylmethyl)-1H-1,2,3-triazol-4-yl)methoxy)propanoic Acid, Formic Acid Salt] | 100 to 1000 nM |
| CCCn1cc(CO[C@H](c2ccc(C)c(CN3C[C@H](C)Cc4ccc(F)cc4S3(=O)=O)c2)C(C)(C)C(=O)O)nn1 [Example 76, (3R)-(3-(((R)-8-fluoro-4-methyl-1,1-dioxido-4,5-dihydrobenzo[f][1,2]thiazepin-2(3H)-yl)methyl)-4-methylphenyl)-2,2-dimethyl-3-((1-propyl-1H-1,2,3-triazol-4-yl)methoxy)propanoic acid] | 1 to 10 nM |
| Cc1ccc(C(OCc2cn(Cc3cccc(-c4cccc(C(=O)O)c4)c3)nn2)C(C)(C)C(=O)O)cc1CN1C[C@@H](C)Oc2ccccc2S1(=O)=O (stereo partly drawn) [Example 26, 3′-((4-((2-Carboxy-2-methyl-1-(4-methyl-3-(((R)-4-methyl-1,1-dioxido-3,4-dihydro-2H-benzo[b][1,4,5]oxathiazepin-2-yl)methyl)phenyl)propoxy)methyl)-1H-1,2,3-triazol-1-yl)methyl)-[1,1′-biphenyl]-3-carboxylic acid] | 10 to 100 nM |
| Cc1ccc(C(OCc2cn(CC3CCN(C(=O)C4CCOCC4)CC3)nn2)C(C)(C)C(=O)O)cc1CN1C[C@@H](C)Oc2ccccc2S1(=O)=O (stereo partly drawn) [Example 35, 2,2-Dimethyl-3-(4-methyl-3-(((R)-4-methyl-1,1-dioxido-3,4-dihydro-2H-benzo[b][1,4,5]oxathiazepin-2-yl)methyl)phenyl)-3-((1-((1-(tetrahydro-2H-pyran-4-carbonyl)piperidin-4-yl)methyl)-1H-1,2,3-triazol-4-yl)methoxy)propanoic acid] | 100 to 1000 nM |
| Cc1ccc(C(OCc2cn(CCOCCN=[N+]=[N-])nn2)C(C)(C)C(=O)O)cc1CN1C[C@@H](C)Oc2ccccc2S1(=O)=O (single isomer, unassigned) [Example 14] | 1 to 10 nM |
